Experimental data: US8048862B2, “Macrocyclic inhibitors of hepatitis C virus replication” (priority 2008, dated 2011)
pIC50: −log10 of the molar value. Read-outs that look alike come from different tables or passages of the source.

Biological target: NS3/NS4 complexes (Hepatitis C virus genotype 1a, UniProt P27958)
Experiment: NS3/NS4 inhibition activity (IC50)
Format: biochemical
Source text: NS3-NS4 inhibition activity can be determined using known assay methods. For example, NS3/NS4 complexes may be formed and inhibitory concentrations of test compounds determined as described in U.S. Patent Application Publication Number 2007/0054842 paragraph numbers 1497-1509, which is incorporated herein by reference in its entirety. Similarly, hepatitis C replicon EC50 may be determined using known assay methods such as described in U.S. Patent Application Publication Number 2007/0054842 paragraph numbers 1510-1515. Assays may be conducted at ambient temperature (23° C.) in assay buffer containing 50 mM Tris-HCl, pH 7.5, 15% glycerol, 0.6 mM Lauryldimethylamine Oxide (LDAO), 25 μM NS4A peptide, and 10 mM Dithiothreitol (DTT).

NS3/NS4 complexes, sequence (P27958 1027-1657): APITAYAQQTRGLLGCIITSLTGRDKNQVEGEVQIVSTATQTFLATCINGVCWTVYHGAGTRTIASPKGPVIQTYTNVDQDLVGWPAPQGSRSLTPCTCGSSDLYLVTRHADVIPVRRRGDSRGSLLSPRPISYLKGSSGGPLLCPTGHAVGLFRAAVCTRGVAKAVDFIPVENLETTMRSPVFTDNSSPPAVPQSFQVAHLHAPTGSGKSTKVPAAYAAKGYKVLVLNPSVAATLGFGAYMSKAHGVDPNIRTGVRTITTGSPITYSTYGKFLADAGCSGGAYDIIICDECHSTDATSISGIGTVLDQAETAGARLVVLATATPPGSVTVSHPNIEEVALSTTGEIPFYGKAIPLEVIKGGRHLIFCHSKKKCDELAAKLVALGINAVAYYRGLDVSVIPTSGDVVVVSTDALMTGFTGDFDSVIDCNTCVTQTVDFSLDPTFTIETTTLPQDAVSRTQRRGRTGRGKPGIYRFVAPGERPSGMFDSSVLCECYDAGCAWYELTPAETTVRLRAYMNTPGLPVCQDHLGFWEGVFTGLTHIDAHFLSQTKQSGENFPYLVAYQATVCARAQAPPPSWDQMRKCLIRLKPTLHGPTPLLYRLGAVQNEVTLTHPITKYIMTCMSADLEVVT
NS3/NS4 complexes, sequence (P27958 1658-1711): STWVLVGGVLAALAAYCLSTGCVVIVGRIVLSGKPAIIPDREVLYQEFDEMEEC

Row | Compound | pIC50 (Table 3, read-out: IC50) | pIC50 (IC50, Table 3)
1 | CC(C)(C)OC(=O)N[C@H]1CCCCC/C=C\[C@@H]2C[C@@]2(C(=O)O)NC(=O)[C@@H]2C[C@@H](Oc3nc4ccc(Cl)cc4o3)CN2C1=O [Compound 1041] | < 7.00 | –
2 | CC(C)(C)OC(=O)N[C@H]1CCCCC/C=C\[C@@H]2C[C@@]2(C(=O)O)NC(=O)[C@@H]2C[C@@H](Oc3nc4cccc(F)c4o3)CN2C1=O [Compound 1042] | 7.00 to 8.00 | –
3 | CC(C)(C)OC(=O)N[C@H]1CCCCC/C=C\[C@@H]2C[C@@]2(C(=O)O)NC(=O)[C@@H]2C[C@@H](Oc3nc4cc(F)ccc4o3)CN2C1=O [Compound 1043] | 7.00 to 8.00 | –
4 | Cc1ccc2oc(O[C@@H]3C[C@H]4C(=O)N[C@]5(C(=O)O)C[C@H]5/C=C\CCCCC[C@H](NC(=O)OC(C)(C)C)C(=O)N4C3)nc2c1 [Compound 1044] | < 7.00 | –
5 | CC(C)(C)OC(=O)N[C@H]1CCCCC/C=C\[C@@H]2C[C@@]2(C(=O)N2CCC[C@H]2C(=O)NCc2ccccc2)NC(=O)[C@@H]2C[C@@H](OC(=O)N3Cc4cccc(F)c4C3)CN2C1=O [Compound 1054] | – | < 7.00
6 | CC(C)(C)OC(=O)N[C@H]1CCCCC/C=C\[C@@H]2C[C@@]2(C(=O)NCC(=O)NCc2ccccc2)NC(=O)[C@@H]2C[C@@H](O)CN2C1=O [Compound 1055] | – | < 7.00
7 | CC(C)(C)OC(=O)N[C@H]1CCCCC/C=C\[C@@H]2C[C@@]2(C(=O)N2CCC[C@H]2C(=O)NCc2ccccc2)NC(=O)[C@@H]2C[C@@H](O)CN2C1=O [Compound 1056] | – | < 7.00
8 | CC(=O)O[C@@H]1C[C@H]2C(=O)N[C@]3(C(=O)NCCC(=O)NCc4ccccc4)C[C@H]3/C=C\CCCCC[C@H](NC(=O)OC(C)(C)C)C(=O)N2C1 [Compound 1059] | < 7.00 | –
9 | CC(=O)O[C@@H]1C[C@H]2C(=O)N[C@]3(C(=O)NCC(=O)NCc4ccccc4)C[C@H]3/C=C\CCCCC[C@H](NC(=O)OC(C)(C)C)C(=O)N2C1 [Compound 1060] | – | < 7.00
10 | CO[C@@H]1C[C@H]2C(=O)N[C@]3(C(=O)NCC(=O)NCc4ccccc4)C[C@H]3/C=C\CCCCC[C@H](NC(=O)OC(C)(C)C)C(=O)N2C1 [Compound 1063] | – | < 7.00
11 | CO[C@@H]1C[C@H]2C(=O)N[C@]3(C(=O)N4CCC[C@H]4C(=O)NCc4ccccc4)C[C@H]3/C=C\CCCCC[C@H](NC(=O)OC(C)(C)C)C(=O)N2C1 [Compound 1064] | – | < 7.00
12 | CN(C)C(=O)O[C@@H]1C[C@H]2C(=O)N[C@]3(C(=O)NCC(=O)NCc4ccccc4)C[C@H]3/C=C\CCCCC[C@H](NC(=O)OC(C)(C)C)C(=O)N2C1 [Compound 1066] | – | < 7.00
13 | CN(C)C(=O)O[C@@H]1C[C@H]2C(=O)N[C@]3(C(=O)NCCC(=O)NCc4ccccc4)C[C@H]3/C=C\CCCCC[C@H](NC(=O)OC(C)(C)C)C(=O)N2C1 [Compound 1067] | < 7.00 | –
14 | CN(C)C(=O)O[C@@H]1C[C@H]2C(=O)N[C@]3(C(=O)N4CCC[C@H]4C(=O)NCc4ccccc4)C[C@H]3/C=C\CCCCC[C@H](NC(=O)OC(C)(C)C)C(=O)N2C1 [Compound 1068] | – | < 7.00
15 | CC(C)(C)OC(=O)N[C@H]1CCCCC/C=C\[C@@H]2C[C@@]2(C(=O)N2CCC[C@@H]2C(=O)NCc2ccccc2)NC(=O)[C@@H]2C[C@@H](O)CN2C1=O [Compound 1087] | – | < 7.00
16 | CC(=O)O[C@@H]1C[C@H]2C(=O)N[C@]3(C(=O)N4CCC[C@@H]4C(=O)NCc4ccccc4)C[C@H]3/C=C\CCCCC[C@H](NC(=O)OC(C)(C)C)C(=O)N2C1 [Compound 1088] | – | < 7.00
17 | CO[C@@H]1C[C@H]2C(=O)N[C@]3(C(=O)N4CCC[C@@H]4C(=O)NCc4ccccc4)C[C@H]3/C=C\CCCCC[C@H](NC(=O)OC(C)(C)C)C(=O)N2C1 [Compound 1089] | – | < 7.00
18 | CN(C)C(=O)O[C@@H]1C[C@H]2C(=O)N[C@]3(C(=O)N4CCC[C@@H]4C(=O)NCc4ccccc4)C[C@H]3/C=C\CCCCC[C@H](NC(=O)OC(C)(C)C)C(=O)N2C1 [Compound 1090] | – | < 7.00
19 | CC(C)(C)OC(=O)N[C@H]1CCCCC/C=C\[C@@H]2C[C@@]2(C(=O)NS(=O)(=O)CC(=O)Nc2ccccc2)NC(=O)[C@@H]2C[C@@H](O)CN2C1=O [Compound 1092] | < 7.00 | –
20 | CN(C)C(=O)O[C@@H]1C[C@H]2C(=O)N[C@]3(C(=O)NS(=O)(=O)CC(=O)Nc4ccccc4)C[C@H]3/C=C\CCCCC[C@H](NC(=O)OC(C)(C)C)C(=O)N2C1 [Compound 1095] | < 7.00 | –
21 | CNC(=O)COc1ccccc1S(=O)(=O)NC(=O)[C@@]12C[C@H]1/C=C\CCCCC[C@H](NC(=O)OC(C)(C)C)C(=O)N1C[C@H](OC(=O)N(C)C)C[C@H]1C(=O)N2 [Compound 1097] | > 8.00 | –
22 | CC(=O)O[C@@H]1C[C@H]2C(=O)N[C@]3(C(=O)NS(=O)(=O)CC(=O)Nc4ccccc4)C[C@H]3/C=C\CCCCC[C@H](NC(=O)OC(C)(C)C)C(=O)N2C1 [Compound 1098] | < 7.00 | –
23 | CC(C)n1c(O[C@@H]2C[C@H]3C(=O)N[C@]4(C(=O)NS(=O)(=O)N(C)C)C[C@H]4/C=C\CCCCC[C@H](NC(=O)OC(C)(C)C)C(=O)N3C2)nc2ccncc21 [Compound 1145] | > 8.00 | –
